Two molecules from ChEMBL document CHEMBL1152394, “Antiproliferative bistramides from Trididemnum cyclops from Madagascar (1)” (J Nat Prod, 2009) can be followed below.

One assay deals with KB. Briefly: Antiproliferative activity against human KB cells. The assay is classed as functional, cell-based.
Assay [1] deals with A2780. Description: Antiproliferative activity against human A2780 cells. The assay is classed as functional, cell-based.
For assay [2], the system named is P388. Description: Antiproliferative activity against mouse P388 cells. The assay is classed as functional, cell-based.
Assay [3] can be described thus: Antiproliferative activity against endothelial cells. The settings on record: Endothelial cell. It is filed as cell-based.
Assay [4] has as its system A2780. Description: Ratio of IC50 for human KB cells to IC50 for human A2780 cells. The assay is classed as functional.
The subject of assay [5] is P388. Briefly: Ratio of IC50 for mouse P388 cells to IC50 for human A2780 cells. It is filed as functional.
In assay [6] the test system is A2780. Description: Ratio of IC50 for endothelial cells to IC50 for human A2780 cells.

Each structure is given as a SMILES string.

Consider `C/C=C/C(O)C/C=C/C[C@H](C)[C@@H](O)CC(=O)NC[C@H](O)[C@H](C)C(=O)NCCC[C@H]1O[C@@]2(CCC[C@@H](CC[C@H](C)/C=C(\C)C(C)=O)O2)CC[C@@H]1C` (some centres undefined), for which the IC50 worked out at 45 nM in the assay with KB, 340 nM with A2780 [1], 20 nM in the assay with P388 [2] and 22 nM in assay [3]. In addition, the “Ratio IC50” value in the assay on A2780 [4], with P388 [5] and in the assay with A2780 [6] was 10 each time.
As to `C/C=C/C(=O)C[C@H]1CC[C@H](C)[C@H](CC(=O)NC[C@H](O)[C@H](C)C(=O)NCCC[C@H]2O[C@@]3(CCC[C@H](CC[C@H](C)/C=C(\C)[C@H](C)O)O3)CC[C@@H]2C)O1` [BISTRAMIDE A], the IC50 in the assay with KB was found to be 45 nM; in the assay with A2780 [1] it was 260 nM; in the assay on P388 [2] it was 20 nM; in assay [3], 22 nM. Besides, the “Ratio IC50” value in the assay with A2780 [4], in the assay on P388 [5] and with A2780 [6] was 10 throughout.
